Publication PMC8775487, “Insights into Asparaginase from Endophytic Fungus Lasiodiplodia theobromae: Purification, Characterization and Antileukemic Activity” (International Journal of Environmental Research and Public …, 2022)

System: T1, purified asparaginase from L. theobromae
T1 construct: native extracellular enzyme purified from culture filtrate of asparagine-induced endophytic fungus (acetone, Q-FF, Sephadex G-100); about 70 kDa on SDS-PAGE
Assay: direct Nesslerization of released ammonia; Lineweaver-Burk and Michaelis-Menten plots
Type: biochemical, Lasiodiplodia theobromae
Conditions: asparagine 0-20 mM; standard assay pH 7, 37 °C
Text: direct Nesslerization of released ammonia; Lineweaver-Burk and Michaelis-Menten plots on purified asparaginase from L. theobromae | Michaelis constant Km and maximum velocity Vmax of the purified asparaginase from L. theobromae were […]

NC(=O)C[C@H](N)C(=O)O [asparagine] was tested, and the Km was 9.37 µM.
